Measurements from patent US12239638B2, “Crystalline form of a 4-[2-(2-fluorophenoxymethyl)phenyl]piperidine compound” (THERAVANCE BIOPHARMA R&D IP, LLC, priority 2008, dated 2025).

Experiments:
hSERT = target: T1, hSERT (Homo sapiens, UniProt P31645); assay: hSERT membrane radioligand binding assay (3H-citalopram); conditions: compound of Example 1 tested as TFA salt; read-out: SERT pKi (converted)
T1 construct: expressed in transfected cells; host or cells: HEK-293 derived cell line, stably transfected; membranes
T1 sequence (P31645 whole entry): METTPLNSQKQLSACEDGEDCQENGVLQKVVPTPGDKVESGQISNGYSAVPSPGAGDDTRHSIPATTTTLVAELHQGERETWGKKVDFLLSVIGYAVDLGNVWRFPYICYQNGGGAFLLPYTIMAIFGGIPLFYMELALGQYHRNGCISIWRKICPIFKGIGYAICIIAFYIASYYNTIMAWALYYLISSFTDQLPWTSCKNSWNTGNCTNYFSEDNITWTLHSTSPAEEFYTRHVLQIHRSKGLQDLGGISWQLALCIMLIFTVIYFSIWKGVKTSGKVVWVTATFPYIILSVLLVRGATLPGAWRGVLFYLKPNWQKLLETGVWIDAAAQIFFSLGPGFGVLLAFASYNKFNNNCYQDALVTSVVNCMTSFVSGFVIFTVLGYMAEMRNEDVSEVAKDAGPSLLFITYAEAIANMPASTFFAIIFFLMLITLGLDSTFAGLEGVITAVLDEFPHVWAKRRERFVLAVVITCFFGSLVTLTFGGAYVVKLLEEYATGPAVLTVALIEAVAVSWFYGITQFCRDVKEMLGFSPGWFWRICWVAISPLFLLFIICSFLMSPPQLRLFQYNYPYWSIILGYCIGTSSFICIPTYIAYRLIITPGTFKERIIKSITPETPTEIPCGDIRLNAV
Experimental: (§1) Membrane radioligand binding assays were used to measure competitive inhibition of labeled ligand (^3H-citalopram or ^3H-nisoxetine or ^3H-WIN35428) binding to membranes prepared from cells expressing the respective human recombinant transporter (hSERT or hNET or hDAT) in order to determine the pKi values of test compounds at the transporters.
(§2) Recombinant human embryonic kidney (HEK-293) derived cell lines stably transfected with hSERT or hNET, respectively, were grown in DMEM medium supplemented with 10% dialyzed FBS (for hSERT) or FBS (for hNET), 100 μg/ml penicillin, 100 μg/ml streptomycin, 2 mM L-glutamine and 250 μg/ml of the aminoglycoside antibiotic G418, in a 5% CO2 humidified incubator at 37° C. When cultures reached 80% confluence, the cells were washed thoroughly in PBS (without Ca^2+ and Mg^2+) and lifted with 5 mM EDTA in PBS. […] Protein concentration of the membrane suspension was determined using a Bio-Rad Bradford Protein Assay kit. […]
(§3) Following a 60 minute incubation at 22° C. […] Plates were dried overnight at room temperature, ˜45 μl of MicroScint™-20 (Perkin Elmer) added and bound radioactivity quantitated via liquid scintillation spectroscopy. Competitive inhibition curves and saturation isotherms were analyzed using GraphPad Prism Software package (GraphPad Software, Inc., San Diego, CA). […]

hNET = target: T2, hNET (Homo sapiens, UniProt P23975); assay: hNET membrane radioligand binding assay (3H-nisoxetine); conditions: compound of Example 1 tested as TFA salt; read-out: NET pKi (converted)
T2 construct: expressed in transfected cells; host or cells: HEK-293 derived cell line, stably transfected; membranes
T2 sequence (P23975 whole entry): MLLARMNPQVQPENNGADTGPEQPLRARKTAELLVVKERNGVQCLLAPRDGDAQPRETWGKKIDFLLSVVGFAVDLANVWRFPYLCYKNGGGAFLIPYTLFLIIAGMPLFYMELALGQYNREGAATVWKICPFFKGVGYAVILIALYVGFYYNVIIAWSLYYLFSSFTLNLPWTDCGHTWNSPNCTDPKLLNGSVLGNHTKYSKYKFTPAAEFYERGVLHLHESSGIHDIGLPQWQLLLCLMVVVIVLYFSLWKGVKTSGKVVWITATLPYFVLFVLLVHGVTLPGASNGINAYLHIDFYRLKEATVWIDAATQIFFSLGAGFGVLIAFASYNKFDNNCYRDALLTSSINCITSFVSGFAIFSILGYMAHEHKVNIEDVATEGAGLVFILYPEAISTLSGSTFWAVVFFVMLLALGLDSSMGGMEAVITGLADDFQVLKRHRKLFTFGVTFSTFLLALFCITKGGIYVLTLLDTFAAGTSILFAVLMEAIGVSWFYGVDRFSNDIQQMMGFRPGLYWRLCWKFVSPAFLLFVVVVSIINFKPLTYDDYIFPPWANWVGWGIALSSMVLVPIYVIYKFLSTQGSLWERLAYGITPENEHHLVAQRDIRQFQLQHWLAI
Experimental: as §1, §2, §3

[1] = Thermal analysis by differential scanning calorimetry (DSC); type: physicochemical; conditions: heating ramp 10° C./min from 22° C. to 250° C.
Experimental: Differential scanning calorimetry (DSC) was performed using a TA Instruments Model Q-100 module with a Thermal Analyst controller. Data were collected and analyzed using TA Instruments Thermal Solutions software. A 2.8 mg sample of the crystalline hydrochloride salt of Example 2 was accurately weighed into a covered aluminum pan. After a 5 minute isothermal equilibration period at 22° C., the sample was heated using a linear heating ramp of 10° C./min from 22° C. to 250° C.

Ki (hSERT): ≤ 12.6 nM | Ki (hNET): ≤ 10 nM | thermal stability (thermal decomposition by DSC) [1]: no thermal decomposition below 200.0 °C
SMILES: Fc1cc(F)c(OCc2ccccc2C2CCNCC2)c(F)c1 [Example 1, 4-[2-(2,4,6-Trifluorophenoxymethyl)phenyl]piperidine]
